The assay relates to neonatal rat ventricular myocytes (NRVMs). As to the kind of experiment: Myocyte proliferation assay (EdU) in neonatal rat ventricular myocytes. Particulars: Rattus norvegicus, Ventricular myocyte, growth relative to blank myocyte growth without compound added; for activation at 1 µM: 1 uM compound; for activation at 3 µM: 3 uM compound; for activation at 10 µM: 10 uM compound. It is filed as cell-based. Here is the method: 1. Isolation of and Culture Neonatal Rat Ventricular Myocytes (NRVMs)
Ventricles from neonatal rats were separated from the atria, cut into small pieces (about 2×2 mm^2) and then dissociated in Ca^2+-free HBSS containing 0.125 mg ml-1 trypsin (Gibco), 10 μg ml-1 DNase II (Sigma) and 0.1 mg ml-1 collagenase type IV (Sigma). The digestion was carried out under constant stirring at 37° C. for 5 min. The supernatant was collected with FBS (Gibco) after each digestion period. After digestion, the collected supernatant was centrifuged at 1000 g for 10 min at room temperature, and then cell pellets were resuspended in DMEM (Gibco) supplemented with 10% FBS and with 100 uM 5-bromo-2′-deoxyuridine (Sigma). The resuspended cells were passed through a cell strainer ([…], BD Falcon) and seeded onto 100-mm plastic dishes for 2 h at 37° C. in a 5% CO2 to remove fibroblasts, the supernatant was then collected and plated onto 1% gelatin (Sigma)-coated dishes. 24 h after the seeding, the medium was changed to DMEM (Gibco) containing 2% FBS (Gibco), 1% insulin-transferrin-selenium (ITS; Gibco), 1% Penicillin-Streptomycin (Gibco). After 24 hours of low serum culture, remove the medium with DMEM (Gibco) containing 6% FBS (Gibco), 1% insulin-transferrin-selenium (ITS; Gibco), 1% Penicillin-Streptomycin (Gibco), different concentrations of compounds (the compounds were pre-diluted in the medium and the drug concentration was 10 uM, 3 uM, 1 uM, fully mixed). After 36 h add Edu substrate (Invitrogen) according to the manufacturer's guidelines, and then after 12 h cell can be used.
2.1. Immobilization: Remove the medium and fix the cells with […] in 200 ul (whichever is covered) for 15 min and wash the cells twice with 500 ul of PBS for 5 min each time.
2.2. Broken membrane: Add 200 ul of 0.3% Triton-X 100 (diluted in PBS) to each well, incubate for 10-15 min at room temperature (the time should not be too long), and wash the cells twice with 500 ul of PBS for 5 min each time.
2.3. Blocking: Add 200 ul of 10% normal goat serum (diluted with 0.1% PBST) to each well, incubate for 1 h at room temperature, and wash twice with 500 ul of 0.1% PBST for 5 min each time.
2.4. Primary antibody: dilute the primary antibody (abcam, ab8295) to blocking solution at a ratio of 1:200, add 100 ul per well, incubate for 1 h at room temperature (may be slightly longer than 2-3 h), wash the cells twice with 500 ul 0.1% PBST for 5 min each time.
2.5. Secondary antibody: Dilute the fluorescently labeled secondary antibody (abcam, ab150117) into blocking solution at a ratio of 1:200, add 100 ul per well, incubate for 1 h at room temperature (the time should not be too long), wash the cells twice with 0.1% PBST for 5 min each time, pay attention to the whole process. Protected from light.
2.6. Edu staining (Invitrogen C10338)
2.6.1 Prepare Click-iT® reaction cocktail according to Table 3. It was important to add the ingredients in the order listed in the table; otherwise, the reaction would not proceed optimally. Use the Click-iT® reaction cocktail within 15 minutes of preparation.
2.6.2 Add 0.1 mL of Click-iT® reaction cocktail to each well containing a coverslip. Rock the plate briefly to ensure that the reaction cocktail is distributed evenly over the coverslip.
2.6.3 Incubate the plate for 30 minutes at room temperature, protected from light.
2.6.4 Remove the reaction cocktail, then wash the cells twice with 0.1% PBST for 5 min each time.
2.7. DAPI staining: DAPI stain was diluted to PBS at a ratio of 1:1000, 100 ul per well, incubated for 30 min at room temperature, and the cells were washed twice with PBS for 5 min each.
We used Molecular Devices' Image Xpress Micro Confocal for high-throughput photo and data analysis.

In the case of `O=C1NC(Nc2ccc(Cl)cc2)=N/C1=C\c1ccc2c(c1)OCO2` [TJU-B060, (4Z)-4-[(2H-1,3-benzodioxol-5-yl)methylidene]-2-[(4-chlorophenyl)amino]-4,5-dihydro-1H-imidazol-5-one], the activation at 1 µM is < 10%, the activation at 3 µM is < 10% and the activation at 10 µM is < 10%.

As to `CN1C(=O)/C(=C/c2ccc3c(c2)OCO3)N=C1Nc1ccccc1` [TJU-B014, (4Z)-4-[(2H-1,3-benzodioxol-5-yl)methylidene]-1-methyl-2-(phenylamino)-4,5-dihydro-1H-imidazol-5-one], the activation at 1 µM is < 10%, the activation at 3 µM fell in the range of 10 to 50% and the activation at 10 µM is > 50%.

Turning to `CN1C(=O)/C(=C/c2ccc3c(c2)OCO3)N=C1N` [TJU-B057, (4Z)-2-amino-4-[(2H-1,3-benzodioxol-5-yl)methylidene]-1-methyl-4,5-dihydro-1H-imidazol-5-one], the activation at 1 µM is 10 to 50%, the activation at 3 µM was < 10% and the activation at 10 µM is < 10%.

Consider `COc1cc(/C=C2\N=C(Nc3ccccc3)NC2=O)cc2c1OCO2` [TJU-B051, (4Z)-4-[(7-methoxy-2H-1,3-benzodioxol-5-yl)methylidene]-2-(phenylamino)-4,5-dihydro-1H-imidazol-5-one], for which the activation at 1 µM is < 10%, the activation at 3 µM was < 10% and the activation at 10 µM lay within 10 to 50%.

Regarding `COc1ccc(NC2=N/C(=C\c3ccc4c(c3)OCCO4)C(=O)N2)cc1` [TJU-B006, (4Z)-4-[(2,3-dihydro-1,4-benzodioxin-6-yl)methylidene]-2-[(4-methoxyphenyl)amino]-4,5-dihydro-1H-imidazol-5-one], the activation at 1 µM lay in the range of 10 to 50%, the activation at 3 µM lay within 10 to 50% and the activation at 10 µM was > 50%.

Regarding `CN1C(=O)/C(=C/c2ccccc2)N=C1N` [TJU-B045, (4Z)-2-amino-1-methyl-4-(phenylmethylidene)-4,5-dihydro-1H-imidazol-5-one], the activation at 1 µM is < 10%, the activation at 3 µM is < 10% and the activation at 10 µM lay within 10 to 50%.

The molecule `CN1C(=O)/C(=C/c2ccc3c(c2)OCO3)N=C1NCC1CC1` [TJU-B052, (4Z)-4-[(2H-1,3-benzodioxol-5-yl)methylidene]-2-[(cyclopropylmethyl)amino]-1-methyl-4,5-dihydro-1H-imidazol-5-one] came in with an activation at 1 µM of 10 to 50%, an activation at 3 µM of 10 to 50% and an activation at 10 µM of 10 to 50%.

Turning to `O=C1NC(Nc2ccccc2)=N/C1=C\c1ccc2c(c1)OC(F)(F)O2` [TJU-B028, (4Z)-4-[(2,2-difluoro-2H-1,3-benzodioxol-5-yl)methylidene]-2-(phenylamino)-4,5-dihydro-1H-imidazol-5-one], the activation at 1 µM is < 10%, the activation at 3 µM was < 10% and the activation at 10 µM was in the range of 10 to 50%.

As for `O=C1NC(NCc2ccccc2)=N/C1=C\c1ccc2c(c1)OCO2` [TJU-B019, (4Z)-4-[(2H-1,3-benzodioxol-5-yl)methylidene]-2-(benzylamino)-4,5-dihydro-1H-imidazol-5-one], the activation at 1 µM is < 10%, the activation at 3 µM is < 10% and the activation at 10 µM is > 50%.

As for `O=C1NC(c2ccccc2)=N/C1=C\c1ccc2c(c1)OCO2` [TJU-B039, (4Z)-4-[(2H-1,3-benzodioxol-5-yl)methylidene]-2-phenyl-4,5-dihydro-1H-imidazol-5-one], the activation at 1 µM is < 10% and the activation at 10 µM was in the range of 10 to 50%.

Take `COc1ccc(/C=C2\N=C(Nc3ccccc3)NC2=O)cc1OC` [TJU-B085, (4Z)-4-[(3,4-dimethoxyphenyl)methylidene]-2-(phenylamino)-4,5-dihydro-1H-imidazol-5-one]: the activation at 1 µM was < 10%, the activation at 3 µM is < 10% and the activation at 10 µM was < 10%.

With `N#Cc1ccc(NC2=N/C(=C\c3ccc4c(c3)OCO4)C(=O)N2)cc1` [TJU-B058, 4-{[(4Z)-4-[(2H-1,3-benzodioxol-5-yl)methylidene]-5-oxo-4,5-dihydro-1H-imidazol-2-yl]amino} benzonitrile], the activation at 1 µM lay in the range of 10 to 50%, the activation at 3 µM is < 10% and the activation at 10 µM was < 10%.

Consider `O=C1NC(C2CC2)=N/C1=C\c1ccc2c(c1)OCO2` [TJU-B059, (4Z)-4-[(2H-1,3-benzodioxol-5-yl)methylidene]-2-cyclopropyl-4,5-dihydro-1H-imidazol-5-one], for which the activation at 1 µM is < 10%, the activation at 3 µM was < 10% and the activation at 10 µM is < 10%.

For the molecule `NC1=N/C(=C\c2ccc3c(c2)OC(F)(F)O3)C(=O)N1` [TJU-B049, (4Z)-2-amino-4-[(2,2-difluoro-2H-1,3-benzodioxol-5-yl)methylidene]-4,5-dihydro-1H-imidazol-5-one], the activation at 1 µM was 10 to 50%, the activation at 3 µM is < 10% and the activation at 10 µM lay within 10 to 50%.

In the case of `COc1cc(/C=C2\N=C(N)NC2=O)cc2c1OCO2` [TJU-B065, (4Z)-2-amino-4-[(7-methoxy-2H-1,3-benzodioxol-5-yl)methylidene]-4,5-dihydro-1H-imidazol-5-one], the activation at 1 µM was < 10%, the activation at 3 µM is < 10% and the activation at 10 µM was < 10%.

On to `O=C1NC(Nc2ccccc2)=NC1Cc1ccc2c(c1)OCO2` (centres unmarked) [TJU-B005, 4-[(2H-1,3-benzodioxol-5-yl)methyl]-2-(phenylamino)-4,5-dihydro-1H-imidazol-5-one], for which the activation at 1 µM fell in the range of 10 to 50%, the activation at 3 µM was < 10% and the activation at 10 µM was > 50%.

With `CC(C)NC1=N/C(=C\c2ccc3c(c2)OCO3)C(=O)N1C` [TJU-B016, (4Z)-4-[(2H-1,3-benzodioxol-5-yl)methylidene]-1-methyl-2-[(propan-2-yl)amino]-4,5-dihydro-1H-imidazol-5-one], the activation at 1 µM was < 10%, the activation at 3 µM lay in the range of 10 to 50% and the activation at 10 µM is > 50%.

In the case of `NC1=N/C(=C\c2ccc3c(c2)OCO3)C(=O)N1` [TJU-B034, (4Z)-2-amino-4-[(2H-1,3-benzodioxol-5-yl)methylidene]-4,5-dihydro-1H-imidazol-5-one], the activation at 1 µM was < 10%, the activation at 3 µM was < 10% and the activation at 10 µM lay in the range of 10 to 50%.

Regarding `COc1ccc(NC2=N/C(=C\c3ccc4c(c3)OCO4)C(=O)N2)cc1` [TJU-B009, (4Z)-4-[(2H-1,3-benzodioxol-5-yl)methylidene]-2-[(4-methoxyphenyl)amino]-4,5-dihydro-1H-imidazol-5-one], the activation at 1 µM was in the range of 10 to 50%, the activation at 3 µM was in the range of 10 to 50% and the activation at 10 µM is > 50%.

Consider `O=C1NC(Nc2ccccc2)=N/C1=C\c1cc2c(cc1Cl)OCO2` [TJU-B011, (4Z)-4-[(6-chloro-2H-1,3-benzodioxol-5-yl)methylidene]-2-(phenylamino)-4,5-dihydro-1H-imidazol-5-one], for which the activation at 1 µM was in the range of 10 to 50%, the activation at 3 µM lay within 10 to 50% and the activation at 10 µM was > 50%.

`CC(C)NC1=N/C(=C\c2ccc3c(c2)OCO3)C(=O)N1` [TJU-B038, (4Z)-4-[(2H-1,3-benzodioxol-5-yl)methylidene]-2-[(propan-2-yl)amino]-4,5-dihydro-1H-imidazol-5-one] showed an activation at 1 µM of 10 to 50%, an activation at 3 µM of 10 to 50% and an activation at 10 µM of 10 to 50%.

Source of the values: patent publication US12594261B2, “Use of heterocyclic derivatives with cardiomyocyte proliferation activity for treatment of heart diseases” (SHANGHAI EAST HOSPITAL (EAST HOSPITAL, TONGJI UNIVERSITY …, priority 2019, dated 2026).
